Measured values reported in patent publication US20260262643A1, “HERBICIDAL BENZOXAZINES” (FMC CORPORATION, priority 2022, published 2026).

Experiments:
barnyardgrass [1] = assay: Test C preemergence; assay type: in vivo, Echinochloa crusgalli
In short: (§1)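 Seeds sown in loam soil–sand blend received a directed preemergence soil spray of test chemical in non-phytotoxic solvent with surfactant; postemergence plants (2–10 cm, one- to two-leaf stage) were sprayed with the same formulation. Greenhouse-held 10 days, then visually rated for injury versus untreated controls, 0 (no effect) to 100 (complete control).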

blackgrass [2] = assay: Test C preemergence; assay type: in vivo, Alopecurus myosuroides
In short: as §1

corn [3] = assay: Test C preemergence; assay type: in vivo, Zea mays
In short: as §1

foxtail, giant [4] = assay: Test C preemergence; assay type: in vivo, Setaria faberi
In short: as §1

kochia [5] = assay: Test C preemergence; assay type: in vivo, Bassia scoparia
In short: as §1

oat, wild [6] = assay: Test C preemergence; assay type: in vivo, Avena fatua
In short: as §1

pigweed, palmer [7] = assay: Test C preemergence; assay type: in vivo, Amaranthus palmeri
In short: as §1

ragweed [8] = assay: Test C preemergence; assay type: in vivo, Ambrosia artemisiifolia
In short: as §1

ryegrass, Italian [9] = assay: Test C preemergence; assay type: in vivo, Lolium multiflorum
In short: as §1

soybean [10] = assay: Test C preemergence; assay type: in vivo, Glycine max
In short: as §1

wheat [11] = assay: Test C preemergence; assay type: in vivo, Triticum aestivum
In short: as §1

barnyardgrass [12] = assay: Test C postemergence; assay type: in vivo, Echinochloa crusgalli; settings: 10 days, 0 to 100 scale (0 no effect, 100 complete control)
In short: as §1

blackgrass [13] = assay: Test C postemergence; assay type: in vivo, Alopecurus myosuroides; settings: 10 days, 0 to 100 scale (0 no effect, 100 complete control)
In short: as §1

corn [14] = assay: Test C postemergence; assay type: in vivo, Zea mays; settings: 10 days, 0 to 100 scale (0 no effect, 100 complete control)
In short: as §1

foxtail, giant [15] = assay: Test C postemergence; assay type: in vivo, Setaria faberi; settings: 10 days, 0 to 100 scale (0 no effect, 100 complete control)
In short: as §1

kochia [16] = assay: Test C postemergence; assay type: in vivo, Bassia scoparia; settings: 10 days, 0 to 100 scale (0 no effect, 100 complete control)
In short: as §1

oat, wild [17] = assay: Test C postemergence; assay type: in vivo, Avena fatua; settings: 10 days, 0 to 100 scale (0 no effect, 100 complete control)
In short: as §1

pigweed, palmer [18] = assay: Test C postemergence; assay type: in vivo, Amaranthus palmeri; settings: 10 days, 0 to 100 scale (0 no effect, 100 complete control)
In short: as §1

ragweed [19] = assay: Test C postemergence; assay type: in vivo, Ambrosia artemisiifolia; settings: 10 days, 0 to 100 scale (0 no effect, 100 complete control)
In short: as §1

ryegrass, Italian [20] = assay: Test C postemergence; assay type: in vivo, Lolium multiflorum; settings: 10 days, 0 to 100 scale (0 no effect, 100 complete control)
In short: as §1

soybean [21] = assay: Test C postemergence; assay type: in vivo, Glycine max; settings: 10 days, 0 to 100 scale (0 no effect, 100 complete control)
In short: as §1

wheat [22] = assay: Test C postemergence; assay type: in vivo, Triticum aestivum; settings: 10 days, 0 to 100 scale (0 no effect, 100 complete control)
In short: as §1

galium = assay: Test C postemergence; assay type: in vivo, Galium aparine; settings: 10 days, 0 to 100 scale (0 no effect, 100 complete control)
In short: as §1

horseweed = assay: Test C postemergence; assay type: in vivo, Erigeron canadensis; settings: 10 days, 0 to 100 scale (0 no effect, 100 complete control)
In short: as §1

barnyardgrass [23] = assay: Test D flooded paddy test; assay type: in vivo, Echinochloa crus-galli; settings: 250 g ai/ha, applied to paddy water, visual rating after 13 to 14 days, scale 0 to 100 (0 no effect, 100 complete control)
In short: (§2)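 Seedlings reached the 2-leaf stage, then pots were flooded to 3 cm over the soil surface. Compound was applied into the water, depth was maintained, and plants stayed in the greenhouse 13 to 14 days before visual scoring (0–100) relative to controls.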

ducksalad = assay: Test D flooded paddy test; assay type: in vivo, Heteranthera limosa; settings: 250 g ai/ha, applied to paddy water, visual rating after 13 to 14 days, scale 0 to 100 (0 no effect, 100 complete control)
In short: as §2

rice = assay: Test D flooded paddy test; assay type: in vivo, Oryza sativa; settings: 250 g ai/ha, applied to paddy water, visual rating after 13 to 14 days, scale 0 to 100 (0 no effect, 100 complete control)
In short: as §2

sedge, umbrella = assay: Test D flooded paddy test; assay type: in vivo, Cyperus difformis; settings: 250 g ai/ha, applied to paddy water, visual rating after 13 to 14 days, scale 0 to 100 (0 no effect, 100 complete control)
In short: as §2

[24] = 500 g ai/ha, preemergence, 0 to 100 scale (0 no effect, 100 complete control)
[25] = Preemergence, 125 g ai/ha, 0 to 100 scale, 0 no effect, 100 complete control

Cc1ncnn1-c1cc(C(=O)N2CC(C(F)(F)F)Oc3c(Cl)cccc32)ccn1 (racemic) [Compound 333]
Barnyardgrass plant response rating (barnyardgrass [1]; [24]): 0
Plant response rating, Barnyardgrass (barnyardgrass [1]; [25]): 0
Blackgrass plant response rating (blackgrass [2]; [24]): 0
Plant response rating, Blackgrass (blackgrass [2]; [25]): 0
Corn plant response rating (corn [3]; [24]): 0
Plant response rating, Corn (corn [3]; [25]): 0
Foxtail, Giant plant response rating (foxtail, giant [4]; [24]): 80
Plant response rating, Foxtail, Giant (foxtail, giant [4]; [25]): 0
Kochia plant response rating (kochia [5]; [24]): 10
Plant response rating, Kochia (kochia [5]; [25]): 0
Oat, Wild plant response rating (oat, wild [6]; [24]): 0
Plant response rating, Oat, Wild (oat, wild [6]; [25]): 0
Pigweed, Palmer plant response rating (pigweed, palmer [7]; [24]): 30
Plant response rating, Pigweed, Palmer (pigweed, palmer [7]; [25]): 0
Ragweed plant response rating (ragweed [8]; [24]): 0
Plant response rating, Ragweed (ragweed [8]; [25]): 0
Ryegrass, Italian plant response rating (ryegrass, Italian [9]; [24]): 40
Plant response rating, Ryegrass, Italian (ryegrass, Italian [9]; [25]): 30
Soybean plant response rating (soybean [10]; [24]): 0
Plant response rating, Soybean (soybean [10]; [25]): 0
Wheat plant response rating (wheat [11]; [24]): 0
Plant response rating, Wheat (wheat [11]; [25]): 0
Plant response rating, Barnyardgrass (barnyardgrass [12]; 500 g ai/ha, postemergence): 10
Plant response rating, Barnyardgrass (barnyardgrass [12]; Postemergence, 125 g ai/ha): 10
Plant response rating, Blackgrass (blackgrass [13]; 500 g ai/ha, postemergence): 20
Plant response rating, Blackgrass (blackgrass [13]; Postemergence, 125 g ai/ha): 0
Plant response rating, Corn (corn [14]; 500 g ai/ha, postemergence): 20
Plant response rating, Corn (corn [14]; Postemergence, 125 g ai/ha): 10
Plant response rating, Foxtail, Giant (foxtail, giant [15]; 500 g ai/ha, postemergence): 40
Plant response rating, Foxtail, Giant (foxtail, giant [15]; Postemergence, 125 g ai/ha): 20
Plant response rating, Kochia (kochia [16]; 500 g ai/ha, postemergence): 50
Plant response rating, Kochia (kochia [16]; Postemergence, 125 g ai/ha): 30
Plant response rating, Oat, Wild (oat, wild [17]; 500 g ai/ha, postemergence): 0
Plant response rating, Oat, Wild (oat, wild [17]; Postemergence, 125 g ai/ha): 0
Plant response rating, Pigweed, Palmer (pigweed, palmer [18]; 500 g ai/ha, postemergence): 20
Plant response rating, Pigweed, Palmer (pigweed, palmer [18]; Postemergence, 125 g ai/ha): 0
Plant response rating, Ragweed (ragweed [19]; 500 g ai/ha, postemergence): 10
Plant response rating, Ragweed (ragweed [19]; Postemergence, 125 g ai/ha): 0
Plant response rating, Ryegrass, Italian (ryegrass, Italian [20]; 500 g ai/ha, postemergence): 10
Plant response rating, Ryegrass, Italian (ryegrass, Italian [20]; Postemergence, 125 g ai/ha): 0
Plant response rating, Soybean (soybean [21]; 500 g ai/ha, postemergence): 50
Plant response rating, Soybean (soybean [21]; Postemergence, 125 g ai/ha): 50
Plant response rating, Wheat (wheat [22]; 500 g ai/ha, postemergence): 10
Plant response rating, Wheat (wheat [22]; Postemergence, 125 g ai/ha): 10
Plant response rating, Galium (galium; 500 g ai/ha, postemergence): 60
Plant response rating, Galium (galium; Postemergence, 125 g ai/ha): 0
Plant response rating, Horseweed (horseweed; 500 g ai/ha, postemergence): 0
Plant response rating, Horseweed (horseweed; Postemergence, 125 g ai/ha): 0
Plant response rating, Barnyardgrass (Flood) (barnyardgrass [23]): 0
Plant response rating, Ducksalad (Flood) (ducksalad): 0
Plant response rating, Rice (Flood) (rice): 0
Plant response rating, Sedge, Umbrella (Flood) (sedge, umbrella): 0
